# According to US9970924B2, “Mechanism and drug targets for reducing cell edema (neuroprotection) and cytoplasmic excitability in astrocytes in normal and pathological states” (CELICA D.O.O., priority 2013, dated 2018):
# “Also recorded” adds a separate entry of the source. Like-named read-outs stand apart in the source and are kept apart here.
# How the values were obtained:
# [1] = test system: intracellular cAMP levels in astrocytes; experiment: FRET measurements of cAMP in living primary astrocytes transfected with Epac1-camps; conditions: for effect on ADR triggered FRET response: 1 μM ADR
# From the text: Astrocytes expressing Epac1-camps or AKAR2 FRET construct were examined with a Plan NeoFluoar 40×/1.3 Oil DIC immersion objective (Carl Zeiss, Jena, Germany) and 2-fold zoom factor using Zeiss LSM510 META confocal microscope (Carl Zeiss, Jena, Germany). Cells were excited at 458 nm and images (512×512) were acquired every 3.5 s or 7 s using Lambda stack acquisition. Emission spectra were collected from META detector in eight channels (lambda stack) ranging from 470 nm to 545 nm, each with a 10.7-nm width. Two-channel (CFP and YFP) images were generated from lambda stacks by analytical software “Extract channels”. Channels with emission spectra 470- and 481-nm and emission spectra 513-, 524-, and 534-nm were extracted to CFP channel and YFP channel, respectively. YFP and CFP fluorescence intensities were quantified within a region of interest selected for individual cell expressing Epac1-camps or AKAR2 using LSM 510 META software. In the graphs, FRET signal is reported as the ratio of YFP to CFP fluorescence signal after subtracting the background fluorescence from both YFP and CFP signals using Sigma Plot. The values of FRET signals were normalized (set to 1.0) at the onset of the experiments. The decrease in FRET signals reflects an increase in [cAMP]i.
# 500 μM 3-Chloro-5-hydroxybenzoic acid (3-Cl-5-HBA; GPR81 receptor exogenous agonist).
# The changes in YFP/CFP fluorescence emission ratio were normalized to baseline ratio values. Single-exponential (F=F0+c×exp (−t/τ)) decay functions or single-exponential rise to maximum functions (F=F0+c×(1−exp(−t/τ))) were fitted to the diagrams with YFP/CFP fluorescence emission ratios using SigmaPlot. The time-constant (τ) and YFP/CFP emission ratio amplitudes (c) were determined from the fitted curves. F is YFP/CFP emission ratio at time t, F0 is baseline YFP/CFP emission ratio, c is YFP/CFP emission ratio amplitude of F(t=0)−F0, and τ is the time constant of individual exponential component.
# astrocytes [2] = conditions: within an hour
# From the text: (§1) LSM 510 Meta software was used to measure cell area and perimeter of isolated Epac1-camps positive astrocytes before and after treatment of cell with different reagents.
# astrocytes [3] = experiment: Hypotonically induced cell swelling (cell surface area) of astrocytes; format: cell-based; conditions: pretreated cells, hypotonic medium ~60% of control osmolarity
# From the text: as §1
# [Ca2+]i in astrocytes = Fluo-4 AM measurements of [Ca2+]i in cultured astrocytes; format: cell-based; conditions: for effect on hypotonicity-elicited periodic elevations in [Ca2+]i: 1 μM ADR or 10 μM Iso applied after hypotonic medium; for intracellular calcium levels on simultaneous treatment with hypotonic medium: 1 μM ADR or 10 μM Iso with hypotonic medium; for effect on ATP-induced elevation in cytosolic calcium levels: 1 mM ATP + 1 μM ADR or 10 μM Iso; for oscillations in intracellular calcium levels: agent alone: 1 μM ADR; for oscillations in intracellular calcium levels / intracellular Ca2+ levels (F/F0) within first 100 s after stimulation: 10 μM Iso; for intracellular Ca2+ levels (F/F0) within first 100 s after stimulation: agent alone: 1 mM ATP
# Description: Live astrocytes were incubated for 30 min at room temperature in medium containing 2 μM of fluorescent dye Fluo-4 AM (Molecular Probes, Invitrogen, Eugene, Oreg., USA). Astrocytes were then transferred to dye-free standard saline solution for at least 30 min before experimentation to allow for cleavage of the AM ester group. Time lapse images were obtained every 3.5 s for up to 10 min with the inverted Zeiss LSM780 confocal microscope with oil-immersion plan apochromatic objective (63×, 1.4 NA) and 488-nm Ar-Ion laser excitation. Emission light was acquired with a 505-530-nm bandpass emission filter. […] Average fluorescence intensity before stimulation of each cell was subtracted from intensities after stimulation (ΔF). Average fluorescence intensity changes normalized to baseline fluorescence intensity (F/F0) were determined for the first 100 s after stimulation.
# astrocytes [4] = experiment: Exocytotic fusion events of Alexa Fluor 546 dextran-labeled vesicles in cultured astrocytes; format: cell-based; conditions: for number of ATP triggered fusion events per cell: 1 mM ATP + 1 μM ADR or 10 μM Iso
# Description: Time-lapse confocal images were obtained every 2 s for 10 min with the inverted Zeiss LSM780 and Zeiss LSM510 META confocal microscopes with oil-immersion plan apochromatic objective (63×, 1.4 NA) and 543-nm He—Ne laser excitation. […] Cells were scanned by eye for an individual exocytotic event by rapidly replaying the movie in forward and reverse directions. The onset of exocytosis was defined as the first frame showing a significant decrease in Alexa Fluor^546-dextran. A circular region of interest was centered on the spot where the event occurred, and changes in the fluorescence intensities of Alexa Fluor^546-dextran were monitored over time.
# [5] = test system: GPR81 receptor / intracellular cAMP levels in astrocytes; experiment: FRET measurements of cAMP in living primary astrocytes transfected with AKAR2; format: cell-based, rat
# From the text: Astrocytes expressing Epac1-camps or AKAR2 FRET construct were examined with a Plan NeoFluoar 40×/1.3 Oil DIC immersion objective (Carl Zeiss, Jena, Germany) and 2-fold zoom factor using Zeiss LSM510 META confocal microscope (Carl Zeiss, Jena, Germany). Cells were excited at 458 nm and images (512×512) were acquired every 3.5 s or 7 s using Lambda stack acquisition. Emission spectra were collected from META detector in eight channels (lambda stack) ranging from 470 nm to 545 nm, each with a 10.7-nm width. Two-channel (CFP and YFP) images were generated from lambda stacks by analytical software “Extract channels”. […] YFP and CFP fluorescence intensities were quantified within a region of interest selected for individual cell expressing Epac1-camps or AKAR2 using LSM 510 META software. In the graphs, FRET signal is reported as the ratio of YFP to CFP fluorescence signal after subtracting the background fluorescence from both YFP and CFP signals using Sigma Plot. […]
# The changes in YFP/CFP fluorescence emission ratio were normalized to baseline ratio values. Single-exponential (F=F0+c×exp (−t/τ)) decay functions or single-exponential rise to maximum functions (F=F0+c×(1−exp(−t/τ))) were fitted to the diagrams with YFP/CFP fluorescence emission ratios using SigmaPlot. The time-constant (τ) and YFP/CFP emission ratio amplitudes (c) were determined from the fitted curves. […]
smiles,measurement,setting,value
"CC(C)NCC(O)COc1cccc2ccccc12 (stereo not shown) [Pro, propranolol]",effect on ADR triggered FRET response,[1]; 1 μM Pro,completely prevented
"CNCC(O)c1ccc(O)c(O)c1 (stereo not shown) [ADR, adrenaline]",decrease in cell area,astrocytes [2],5-10%
same,increase in cell perimeter,astrocytes [2],30-50%
same,hypotonically induced cell swelling (increase in cell surface area),astrocytes [3],reduces hypotonically induced cell swelling; also recorded: reduced
same,frequency of calcium oscillations compared with hypotonic medium-stimulated cells,[Ca2+]i in astrocytes; 1 μM ADR,more frequent
same,effect on hypotonicity-elicited periodic elevations in [Ca2+]i,[Ca2+]i in astrocytes,attenuated; also recorded: ceased
same,intracellular calcium levels on simultaneous treatment with hypotonic medium,[Ca2+]i in astrocytes,"transient increase in intracellular calcium levels, which was followed by a decline to basal levels"
same,effect on ATP-induced elevation in cytosolic calcium levels,[Ca2+]i in astrocytes,diminishes the elevation in cytosolic calcium levels
same,oscillations in intracellular calcium levels,[Ca2+]i in astrocytes,induced oscillations in intracellular calcium levels
same,intracellular Ca2+ levels (F/F0) within first 100 s after stimulation,[Ca2+]i in astrocytes; 1 μM ADR,increased
same,number of ATP triggered fusion events per cell,astrocytes [4],reduce the number of exocytotic fusion events; also recorded: diminished
same,increase in FRET response to hypotonic medium (decrease in cAMP),"[1]; ADR pre-treated cells, hypotonic medium",reversible and slowly declined to the baseline
same,EC50,"[1]; Rattus norvegicus, Astrocyte, read-out: concentration of ADR at which 50% of maximum cAMP increase was observed (EC50), maximum YFP/CFP ratio response, Epac1-camps, dose-response",~0.03 µM
same,EC50,"[1]; read-out: concentration of ADR at which 50% of maximum cAMP increase was observed (EC50), maximum YFP/CFP ratio response, Epac1-camps, dose-response",0.029 ± 0.0001 µM
CC(C)Cn1c(=O)n(C)c(=O)c2[nH]cnc21 [IBMX],effect on Epac1-camps response to FSK,[1]; 200 μM IBMX with 50 μM FSK,increased Epac1-camps response to AC activator FSK
"C[C@H](O)C(=O)[O-].[Na+] [lactate, Sodium L-lactate]",intracellular cAMP levels (AKAR2 YFP/CFP ratio; uprise = cAMP increase),[5]; 20 mM lactate,increase in intracellular cAMP levels
same,intracellular cAMP levels (Epac1-camps YFP/CFP ratio; decline = cAMP increase),[1]; 20 mM lactate,increase in intracellular cAMP levels
O=C(O)c1cc(O)cc(Cl)c1 [3-Cl-5-HBA],intracellular cAMP levels (AKAR2 YFP/CFP ratio; uprise = cAMP increase),[5]; 500 μM 3-Cl-5-HBA,increase in intracellular cAMP levels
"Nc1ncnc2c1ncn2[C@@H]1O[C@H](COP(=O)(O)OP(=O)(O)OP(=O)(O)O)[C@@H](O)[C@H]1O [ATP, adenosine-5′-triphosphate]",intracellular Ca2+ levels (F/F0) within first 100 s after stimulation,[Ca2+]i in astrocytes; 1 μM ADR,increased
same,exocytotic fusion release events,astrocytes [4]; 1 mM ATP,triggered exocytotic fusion release events
"C[C@H]1O[C@@H](n2cnc3c(N)ncnc32)C[C@@H]1O [DDA, 2′,5′-dideoxiadenosine]",effect on ADR triggered FRET response,[1]; 100 μM DDA,slower decay kinetics
"CC(C)NCC(O)c1ccc(O)c(O)c1 (stereo not shown) [Iso, isoprenaline]",hypotonically induced cell swelling (increase in cell surface area),astrocytes [3],reduced
same,effect on hypotonicity-elicited periodic elevations in [Ca2+]i,[Ca2+]i in astrocytes,ceased
same,intracellular calcium levels on simultaneous treatment with hypotonic medium,[Ca2+]i in astrocytes,"transient increase in intracellular calcium levels, which was followed by a decline to basal levels"
same,effect on ATP-induced elevation in cytosolic calcium levels,[Ca2+]i in astrocytes,diminishes the elevation in cytosolic calcium levels
same,oscillations in intracellular calcium levels,[Ca2+]i in astrocytes,not
same,intracellular Ca2+ levels (F/F0) within first 100 s after stimulation,[Ca2+]i in astrocytes; 1 μM ADR,no significant difference
same,number of ATP triggered fusion events per cell,astrocytes [4],diminished
